# Results published in patent US8759361B2, “2-phenoxy pyrimidinone analogues” (Neurogen Corporation, priority 2006, dated 2014).
# Molecular target: T1, human capsaicin receptor (Homo sapiens, UniProt Q8NER1)
# T1 construct: expressed in transfected cells
# Experiment: Calcium mobilization assay, determination of antagonist activity (Example 6)
# Format: cell-based
# Settings: cells expressing human capsaicin receptor, capsaicin-induced fluorescence response; read-out: IC50
# Protocol: A cDNA encoding full length human capsaicin receptor (SEQ ID NO:1, 2 or 3 of U.S. Pat. No. 6,482,611) is subcloned in the plasmid pBK-CMV (Stratagene, La Jolla, Calif.) for recombinant expression in mammalian cells.
# Human embryonic kidney (HEK293) cells are transfected with the pBK-CMV expression construct encoding the full length human capsaicin receptor using standard methods. The transfected cells are selected for two weeks in media containing G418 (400 μg/ml) to obtain a pool of stably transfected cells. Independent clones are isolated from this pool by limiting dilution to obtain clonal stable cell lines for use in subsequent experiments.
# Cells transfected with expression plasmids (as described in Example 4) and thereby expressing human capsaicin receptor are seeded and grown to 70-90% confluency in FALCON black-walled, clear-bottomed 96-well plates (#3904, BECTON-DICKINSON, Franklin Lakes, N.J.). The culture medium is emptied from the 96 well plates and FLUO-3 AM calcium sensitive dye (Molecular Probes, Eugene, Oreg.) is added to each well (dye solution: 1 mg FLUO-3 AM, 440 μL DMSO and 440 μl 20% pluronic acid in DMSO, diluted 1:250 in Krebs-Ringer HEPES (KRH) buffer (25 mM HEPES, 5 mM KCl, 0.96 mM NaH2PO4, 1 mM MgSO4, 2 mM CaCl2, 5 mM glucose, 1 mM probenecid, pH 7.4), 50 μl diluted solution per well). Plates are covered with aluminum foil and incubated at 37° C. for 1-2 hours in an environment containing 5% CO2. After the incubation, the dye is emptied from the plates, and the cells are washed once with KRH buffer, and resuspended in KRH buffer.
# To measure the ability of a test compound to agonize or antagonize a calcium mobilization response in cells expressing capsaicin receptors to capsaicin or other vanilloid agonist, the EC50 of the agonist capsaicin is first determined. An additional 20 μl of KRH buffer and 1 μl DMSO is added to each well of cells, prepared as described above. 100 μl capsaicin in KRH buffer is automatically transferred by the FLIPR instrument to each well. Capsaicin-induced calcium mobilization is monitored using either FLUOROSKAN ASCENT (Labsystems; Franklin, Mass.) or FLIPR (fluorometric imaging plate reader system; Molecular Devices, Sunnyvale, Calif.) instruments. Data obtained between 30 and 60 seconds after agonist application are used to generate an 8-point concentration response curve, with final capsaicin concentrations of 1 nM to 3 μM. KALEIDAGRAPH software (Synergy Software, Reading, Pa.) is used to fit the data to the equation: y=a*(1/(1+(b/x)^c)) to determine the 50% excitatory concentration (EC50) for the response. In this equation, y is the maximum fluorescence signal, x is the concentration of the agonist or antagonist (in this case, capsaicin), a is the Emax, b corresponds to the EC50 value and c is the Hill coefficient. Determination of Agonist Activity
# Test compounds are dissolved in DMSO, diluted in 20 μl KRH buffer so that the final concentration of test compounds in the assay well is between 1 μM and 5 μM, and added to cells prepared as described above. The 96 well plates containing prepared cells and test compounds are incubated in the dark, at room temperature for 0.5 to 6 hours. It is important that the incubation not continue beyond 6 hours. Just prior to determining the fluorescence response, 100 μl capsaicin in KRH buffer at twice the EC50 concentration determined as described above is automatically added by the FLIPR instrument to each well of the 96 well plate for a final sample volume of 200 μl and a final capsaicin concentration equal to the EC50. The final concentration of test compounds in the assay wells is between 1 μM and 5 μM. […] The concentration of antagonist required to provide a 50% decrease, relative to the response observed in the presence of capsaicin and without antagonist, is the IC50 for the antagonist, and is preferably below 1 micromolar, 100 nanomolar, 10 nanomolar or 1 nanomolar.
# T1 sequence (Q8NER1 whole entry): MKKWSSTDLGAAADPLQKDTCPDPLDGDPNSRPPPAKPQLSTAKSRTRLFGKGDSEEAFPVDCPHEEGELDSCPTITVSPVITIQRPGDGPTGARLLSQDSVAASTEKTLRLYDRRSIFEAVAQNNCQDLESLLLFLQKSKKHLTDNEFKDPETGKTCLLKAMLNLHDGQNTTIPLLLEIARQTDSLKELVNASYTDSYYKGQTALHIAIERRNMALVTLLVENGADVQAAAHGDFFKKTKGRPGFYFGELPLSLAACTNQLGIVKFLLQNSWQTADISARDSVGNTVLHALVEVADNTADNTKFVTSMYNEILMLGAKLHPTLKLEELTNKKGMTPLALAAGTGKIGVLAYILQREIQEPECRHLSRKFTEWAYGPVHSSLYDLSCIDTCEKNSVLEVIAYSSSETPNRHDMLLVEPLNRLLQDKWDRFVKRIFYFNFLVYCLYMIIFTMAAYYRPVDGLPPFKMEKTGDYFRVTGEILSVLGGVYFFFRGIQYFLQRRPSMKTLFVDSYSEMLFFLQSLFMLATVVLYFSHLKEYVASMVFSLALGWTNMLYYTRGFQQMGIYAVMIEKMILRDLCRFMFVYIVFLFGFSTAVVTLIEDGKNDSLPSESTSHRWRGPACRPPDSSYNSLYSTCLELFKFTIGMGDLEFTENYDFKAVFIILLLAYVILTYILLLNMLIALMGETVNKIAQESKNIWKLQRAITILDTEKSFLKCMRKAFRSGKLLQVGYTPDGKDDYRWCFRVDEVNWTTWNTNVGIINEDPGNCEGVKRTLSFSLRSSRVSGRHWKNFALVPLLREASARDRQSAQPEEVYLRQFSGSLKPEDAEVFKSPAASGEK
row,IC50,SMILES
1,≤ 100 nM,"Cn1cnc2c(=O)n(-c3ccc(F)cc3)c(Oc3c(F)ccc(F)c3F)nc21 [Compound 24, 1-(4-fluorophenyl)-9-methyl-2-(2,3,6-trifluorophenoxy)-1,9-dihydro-6H-purin-6-one]"
2,≤ 100 nM,"Cc1cccc(Oc2nc3c(ncn3C)c(=O)n2-c2ccc(F)cc2)c1C [Compound 63, 2-(2,3-dimethylphenoxy)-1-(4-fluorophenyl)-9-methyl-1,9-dihydro-6H-purin-6-one]"
3,≤ 100 nM,"Cn1cnc2c(=O)n(-c3ccc(F)cc3)c(Oc3cc(F)cc(F)c3F)nc21 [Compound 20, 1-(4-fluorophenyl)-9-methyl-2-(2,3,5-trifluorophenoxy)-1,9-dihydro-6H-purin-6-one]"
4,≤ 100 nM,"O=c1c2ncccc2nc(Oc2ccc(F)c(F)c2F)n1-c1ccc(F)cc1 [Compound 32, 3-(4-fluorophenyl)-2-(2,3,4-trifluorophenoxy)pyrido[3,2-d]pyrimidin-4(3H)-one]"
5,≤ 100 nM,"Cc1csc2c(=O)n(-c3ccc(Cl)cc3)c(Oc3ccc(F)cc3F)nc12 [Compound 52, 3-(4-chlorophenyl)-2-(2,4-difluorophenoxy)-7-methylthieno[3,2-d]pyrimidin-4(3H)-one]"
6,≤ 100 nM,"Cc1csc2c(=O)n(-c3ccc(F)cc3)c(Oc3ccc(F)c(F)c3F)nc12 [Compound 53, 3-(4-fluorophenyl)-7-methyl-2-(2,3,4-trifluorophenoxy)thieno[3,2-d]pyrimidin-4(3H)-one]"
7,≤ 100 nM,"Cn1cnc2c(=O)n(-c3ccc(Cl)cc3)c(Oc3c(F)cc(F)cc3F)nc21 [Compound 8, 1-(4-chlorophenyl)-9-methyl-2-(2,4,6-trifluorophenoxy)-1,9-dihydro-6H-purin-6-one]"
8,≤ 100 nM,"Cn1cnc2c(=O)n(-c3ccc(F)cc3)c(Oc3ccc(C#N)c(F)c3F)nc21 [Compound 29, 2,3-difluoro-4-{[1-(4-fluorophenyl)-9-methyl-6-oxo-6,9-dihydro-1H-purin-2-yl]oxy}benzonitrile]"
9,≤ 100 nM,"O=c1c2ncsc2nc(Oc2cc(F)c(F)cc2F)n1-c1ccc(F)cc1 [Compound 35, 6-(4-fluorophenyl)-5-(2,4,5-trifluorophenoxy)[1,3]thiazolo[5,4-d]pyrimidin-7(6H)-one]"
10,≤ 100 nM,"Cc1csc2c(=O)n(-c3ccc(Cl)cc3)c(Oc3ccc(F)c(F)c3F)nc12 [Compound 50, 3-(4-chlorophenyl)-7-methyl-2-(2,3,4-trifluorophenoxy)thieno[3,2-d]pyrimidin-4(3H)-one]"
11,≤ 100 nM,"Cn1cnc2c(=O)n(-c3ccc(F)cc3)c(Oc3ccc(F)cc3Cl)nc21 [Compound 22, 2-(2-chloro-4-fluorophenoxy)-1-(4-fluorophenyl)-9-methyl-1,9-dihydro-6H-purin-6-one]"
12,≤ 100 nM,"Cc1csc2c(=O)n(-c3ccc(Cl)cc3)c(Oc3ccc(Cl)cc3F)nc12 [Compound 51, 2-(4-chloro-2-fluorophenoxy)-3-(4-chlorophenyl)-7-methylthieno[3,2-d]pyrimidin-4(3H)-one]"
13,≤ 100 nM,"Cn1cnc2c(=O)n(-c3ccc(Cl)cc3)c(Oc3cccc(C(F)(F)F)c3F)nc21 [Compound 42, 1-(4-chlorophenyl)-2-[2-fluoro-3-(trifluoromethyl)phenoxy]-9-methyl-1,9-dihydro-6H-purin-6-one]"
14,≤ 100 nM,"Cn1cnc2c(=O)n(-c3ccc(Cl)cc3)c(Oc3c(F)ccc(F)c3F)nc21 [Compound 25, 1-(4-chlorophenyl)-9-methyl-2-(2,3,6-trifluorophenoxy)-1,9-dihydro-6H-purin-6-one]"
15,≤ 100 nM,"O=c1c2ncsc2nc(Oc2cc(F)c(F)c(F)c2)n1-c1ccc(F)cc1 [Compound 37, 6-(4-fluorophenyl)-5-(3,4,5-trifluorophenoxy)[1,3]thiazolo[5,4-d]pyrimidin-7(6H)-one]"
16,≤ 100 nM,"Cn1cnc2c(=O)n(-c3ccc(Cl)cc3)c(Oc3cccc(F)c3F)nc21 [Compound 21, 1-(4-chlorophenyl)-2-(2,3-difluorophenoxy)-9-methyl-1,9-dihydro-6H-purin-6-one]"
17,≤ 100 nM,"Cn1cnc2c(=O)n(-c3ccc(F)cc3)c(Oc3cccc(C(F)(F)F)c3)nc21 [Compound 48, 1-(4-fluorophenyl)-9-methyl-2-[3-(trifluoromethyl)phenoxy]-1,9-dihydro-6H-purin-6-one]"
18,≤ 100 nM,"O=c1c2ncsc2nc(Oc2cc(F)cc(C(F)(F)F)c2)n1-c1ccc(F)cc1 [Compound 44, 6-(4-fluorophenyl)-5-[3-fluoro-5-(trifluoromethyl)phenoxy][1,3]thiazolo[5,4-d]pyrimidin-7(6H)-one]"
19,≤ 100 nM,"Cc1csc2c(=O)n(-c3ccc(F)cc3)c(Oc3ccc(Cl)cc3F)nc12 [Compound 54, 2-(4-chloro-2-fluorophenoxy)-3-(4-fluorophenyl)-7-methylthieno[3,2-d]pyrimidin-4(3H)-one]"
20,≤ 100 nM,"O=c1c2ncsc2nc(Oc2ccc(F)c(F)c2F)n1-c1ccc(F)cc1 [Compound 33, 6-(4-fluorophenyl)-5-(2,3,4-trifluorophenoxy)[1,3]thiazolo[5,4-d]pyrimidin-7(6H)-one]"
21,≤ 100 nM,"O=c1c2ncsc2nc(Oc2cc(F)cc(F)c2F)n1-c1ccc(F)cc1 [Compound 36, 6-(4-fluorophenyl)-5-(2,3,5-trifluorophenoxy)[1,3]thiazolo[5,4-d]pyrimidin-7(6H)-one]"
22,≤ 100 nM,"Cn1cnc2c(=O)n(-c3ccc(Cl)cc3)c(Oc3ccc(F)cc3Cl)nc21 [Compound 23, 2-(2-chloro-4-fluorophenoxy)-1-(4-chlorophenyl)-9-methyl-1,9-dihydro-6H-purin-6-one]"
23,≤ 100 nM,"CCn1cnc2c(=O)n(-c3ccc(F)cc3)c(Oc3cc(F)cc(F)c3F)nc21 [Compound 26, 9-ethyl-1-(4-fluorophenyl)-2-(2,3,5-trifluorophenoxy)-1,9-dihydro-6H-purin-6-one]"
24,≤ 100 nM,"Cn1cnc2c(=O)n(-c3ccc(Cl)cc3)c(Oc3cc(F)cc(F)c3F)nc21 [Compound 27, 1-(4-chlorophenyl)-9-methyl-2-(2,3,5-trifluorophenoxy)-1,9-dihydro-6H-purin-6-one]"
25,≤ 100 nM,"Cn1cnc2c(=O)n(-c3ccc(F)cc3)c(Oc3cc(F)cc(C(F)(F)F)c3)nc21 [Compound 49, 1-(4-fluorophenyl)-2-[3-fluoro-5-(trifluoromethyl)phenoxy]-9-methyl-1,9-dihydro-6H-purin-6-one]"
26,≤ 100 nM,"Cn1cnc2c(=O)n(-c3ccc(Cl)cc3)c(Oc3cc(F)c(F)c(F)c3)nc21 [Compound 30, 1-(4-chlorophenyl)-9-methyl-2-(3,4,5-trifluorophenoxy)-1,9-dihydro-6H-purin-6-one]"
27,≤ 100 nM,"O=c1c2ncsc2nc(Oc2cccc(C(F)(F)F)c2)n1-c1ccc(F)cc1 [Compound 46, 6-(4-fluorophenyl)-5-(3-(trifluoromethyl)phenoxy)thiazolo[5,4-d]pyrimidin-7(6H)-one]"
28,≤ 100 nM,"Cn1cnc2c(=O)n(-c3ccc(F)cc3)c(Oc3c(F)cc(F)cc3F)nc21 [Compound 12, 1-(4-fluorophenyl)-9-methyl-2-(2,4,6-trifluorophenoxy)-1,9-dihydro-6H-purin-6-one]"

# Same assay, conditions: cells expressing human capsaicin receptor, capsaicin-induced fluorescence response; read-out: IC50 determined as described in Example 6
row,IC50,SMILES
1,≤ 100 nM,"Cn1cnc2c(=O)n(-c3ccc(Cl)nc3)c(Oc3cc(F)c(F)c(F)c3)nc21 [Compound 6, 1-(6-Chloropyridin-3-yl)-9-methyl-2-(3,4,5-trifluorophenoxy)-1H-purin-6(9H)-one]"
2,≤ 100 nM,"Cn1cnc2c(=O)n(-c3ccc(Br)cc3)c(Oc3ccc(F)c(F)c3F)nc21 [Compound 1, 1-(4-Bromophenyl)-9-methyl-2-(2,3,4-trifluorophenoxy)-1,9-dihydro-6H-purin-6-one]"
